Experimental data: US20210228523A1, “MODULATORS OF SESTRIN-GATOR2 INTERACTION AND USES THEREOF” (Navitor Pharmaceuticals, Inc., priority 2017, published 2021)
Where “and” joins values, the source holds several entries; their conditions need not be identical. Equal values may be shown once.

Tests used:
Male Sprague Dawley rats [1] = experiment: Novelty Suppressed Feeding Test (NSFT) with home cage feeding control; type: in vivo, rat
Procedure: Behavioral Analysis Using the Novelty Suppressed Feeding Test (NSFT): The NSFT was conducted as previously described (Warner-Schmidt, J. L. & Duman, R. S. PNAS 104(11): 4647-52 (2007)). Rats were fasted in their home cages for 20 hr and then placed in a Plexiglas open field (76.5 cm×76.5 cm×40 cm) with a small amount of food in the center. Animals were allowed to explore the open field for 8 min and the latency to feed (s) was recorded.
Chronic Unpredictable Stress (CUS) Conditions: Rats were exposed to a variable sequence of 12 unpredictable stressors, preventing habituation as described (Li, N. et al., Biol Psychiatry 69(8): 754-61 (2011)). The following twelve stressors were applied (2 per day, for 25 days): cage rotation, light on, light off, cold stress, isolation, swim stress, food and water deprivation, wet bedding, stroboscope, cage tilt, odor exposure and group housing. The animals in non-stressed (NS) groups were housed normally without the application of external stressors. Both NS and CUS rats were handled and weighed weekly.
(§1) Study Design. Thirty-two (32) male Sprague Dawley Male rats weighing between 175 and 200 g were randomized into 4 study groups (n=8/treatment group), following a 5-day acclimation period. On study day 0, rats received a single dose of either saline (Sal) or ketamine (Ket) in Groups 1 and 2, respectively, by intraperitoneal injection (i.p.). The rats in Group 3 and 4 received a single dose of the NV-5138 vehicle (Veh, 0.5% Methylcellulose/0.1% Tween-80) or NV-5138 (160 mg/kg), respectively, by oral gavage. All rats were subjected to the FUST on day 1, 24 hrs after dosing. On day 2, 48 hrs after dosing, the LMA of all rats was measured in an open field. Rats were then fasted for 20 hrs and subjected to the NSFT, 72 hrs post-dose.
Study Design: Fifty-six (56) male rats weighing between 175 and 200 g were randomized into 4 study groups (n=14/group), following a 5-day acclimation period. On study day minus 20, two groups of rats were subjected to CUS for 25 days and two groups of rats were housed normally serving as the NS group. On the day 21 of the CUS protocol, rats received a single dose of either Veh or NV-5138 (160 mg/kg) by oral gavage (day 0). The SPT and NSFT were performed 24 and 48 hrs post-administration (days 1 and 2), respectively. Upon completion of the behavioral tests, after 25 days of the CUS protocol a second dose of NV-5138 or Veh was administered on day 5 and rats were sacrificed 24 hrs later by conscious decapitation. Crude synaptosomes were prepared from the PFC and the synaptic proteins, GluR1 and PSD95 were quantitated by WB.
Study Design. Twenty (20) male rats weighing between 175 and 200 g were randomized into 3 study groups (n=6-7/group), following a 5-day acclimation period. All rats were surgically implanted with bilateral IT cannulas in the PFC 2 weeks prior to dosing. […] Thirty minutes following the intrathecal infusions, either NV-5138 vehicle (Veh-NV, 0.5% methylcellulose/0.1% Tween-80) or NV-5138 (160 mg/kg) was administered by oral gavage. Each treatment group was assessed at the designated time following oral dosing in FST 24 hrs (day 1) LMA 48 hrs (day 2) and the NSFT 72 hrs (day 3 following a 20 hr period of fasting). LMA was measured to rule out overall changes in generally locomotor activity. The study design is presented in Table 11 with timeline of surgical procedures, test article administration and behavioral tests is provided in FIG. 20
Study Design. Forty-eight (48) male rats weighing between 175 and 200 g were randomized into 6 study groups (n=8/group), following a 5-day acclimation period. A single dose of all test articles was administered on day 0 and the behavioral tests were performed 3, 7 and 10 days later. Groups 1 and 2 were dosed on day 0 with NV-5138 (160 mg/kg by oral gavage) and Ket (10 mg/kg by i.p. injection), respectively and subjected to a FST on day 3. […]

Male Sprague Dawley rats [2] = experiment: Female Urine Sniffing Test (FUST); type: in vivo, rat; settings: Example A, 24 hrs post-dose; for time spent sniffing female urine (FUST): mean±SEM, n=8
Procedure: Behavioral Analysis Using the Female Urine Sniffing Test (FUST): The FUST was conducted according to published procedures (Malkesman, O. et al, Biol Psychiatry 67(9): 864-71 (2010)), 24 hr post-dosing. Briefly, rats were habituated for 60 min to a cotton swab dipped in tap water in their home cage. Next, rats were exposed to a 2nd cotton swab dipped in tap water and 45 min later they were exposed to a 3rd cotton swab infused with fresh rat urine from 11 to 14-week-old female rats in estrus. The total time (s) spent sniffing the cotton-tipped applicator was quantitated over 5 min for each animal.
as §1
Preparation of Test Articles. Ket (Sigma, cat #K1884) was dissolved in Sal at a concentration of 10 mg/mL. A volume of 1 ml/kg of Sal or Ket was injected i.p. for Groups 1 and 2, respectively. NV-5138 (Navitor, lot #06) was prepared by dissolving in Veh (0.5% methylcellulose/0.1% Tween-80) at a concentration of 50 mg/mL. The dosing volume based on the weight of the animal (3.2 mL/kg) of Veh or NV-5138 was administered by oral gavage to study animals in Groups 3 and 4, respectively. Test articles were prepared the day of dosing.

SMILES | decrease in the latency to feed (NSFT) vs Sal (Male Sprague Dawley rats [1]; Example A, Ket 10 mg/kg i.p. single dose, 72 hrs post-dose, p<0.01) [%] | NSFT vs Sal (Male Sprague Dawley rats [1]; Example G, Ket 10 mg/kg i.p. single dose, 10 days post-dose) | time spent sniffing female urine (FUST) (Male Sprague Dawley rats [2]; Ket 10 mg/kg i.p. single dose) [s] | increase in time spent sniffing female urine vs Sal (Male Sprague Dawley rats [2]; Ket 10 mg/kg i.p. single dose, p<0.05) [fold] | decrease in the latency to feed (NSFT) vs Veh (Male Sprague Dawley rats [1]; Example A, NV-5138 160 mg/kg oral single dose, 72 hrs post-dose, p<0.01) [%] | NSFT latency to feed (Male Sprague Dawley rats [1]; Example E, CUS rats, NV-5138 160 mg/kg oral, 48 hrs after treatment, p<0.0001 vs CUS Veh) [s] | NSFT latency to feed (Male Sprague Dawley rats [1]; Example E, non-stressed (NS) rats, NV-5138 160 mg/kg oral, 48 hrs after treatment, p<0.01 vs Veh) [s] | NSFT latency to feed (Male Sprague Dawley rats [1]; Example F, Veh-R IT infusion then NV-5138 160 mg/kg oral, 72 hrs) [s] | decrease in NSFT latency to feed vs Veh-R/Veh-NV (Male Sprague Dawley rats [1]; Example F, Veh-R IT infusion then NV-5138 160 mg/kg oral, 72 hrs, p<0.05, 160 mg/kg) | NSFT latency to feed, R/NV-5138 vs Veh-R/Veh-NV (Male Sprague Dawley rats [1]; Example F, rapamycin (R, 0.01 nmol) IT infusion into PFC 30 min before NV-5138 160 mg/kg oral, 72 hrs) | NSFT vs Veh (Male Sprague Dawley rats [1]; Example G, NV-5138 160 mg/kg oral single dose, 10 days post-dose) | NSFT (Male Sprague Dawley rats [1]; Example I, NV-5138 80 mg/kg oral daily for 7 days, day 9, 72 hrs post-last dose) | time spent sniffing female urine (FUST) (Male Sprague Dawley rats [2]; NV-5138 160 mg/kg oral single dose) [s] | increase in time spent sniffing female urine vs Veh (Male Sprague Dawley rats [2]; NV-5138 160 mg/kg oral single dose, p<0.01) [fold]
CNC1(c2ccccc2Cl)CCCCC1=O (centres unmarked) [Ket, ketamine, reference compound] | 31 | No significant difference | 36.5 ± 7.9 | 2.1 | – | – | – | – | – | – | – | – | – | –
CC(C)(C[C@H](N)C(=O)O)C(F)F [NV-5138] | – | – | – | – | 36 | 520.1 ± 40.35 | 430.6 ± 25.3 | 510 ± 50 | 46% and 32% | lack of significant effect on latency to feed | No significant difference | Significant effects | 33.8 ± 2.9 | 2.9
